Broadly, the IC50 is the concentration that inhibits the measured activity by half. Broadly, the Ki is the dissociation constant of the complex between target and ligand, obtained from inhibition or displacement. Read a high Ki as a looser hold on the target. What is called GI50 is the concentration at which growth is held to half of that of the control. One may read the ED50 as the dose that gives a 50% effect, or the effect in half of the subjects. A low value points to greater potency.

The structures appear in SMILES notation.

A short description of experiment [1]: Antiinflammatory activity in human HL60 cells assessed as inhibition of LPS-induced IL-1beta production. Format: functional, cell-based. Conditions: HL-60.
Experiment [2] deals with Adrenergic receptor alpha-1 (Rattus norvegicus) (UniProt P15823+P23944+P43140). The experiment is described as follows: Potency index, ratio of compound affinity to prazosin affinity for alpha1-adrenergic receptor in rat cerebral cortex membranes. In kind it is cell membranes. Conditions: Membrane.
Experiment [3] concerns the target T1, Adrenergic receptor alpha-1 (Rattus norvegicus, UniProt P15823+P23944+P43140).
T1 sequence (P15823 whole entry): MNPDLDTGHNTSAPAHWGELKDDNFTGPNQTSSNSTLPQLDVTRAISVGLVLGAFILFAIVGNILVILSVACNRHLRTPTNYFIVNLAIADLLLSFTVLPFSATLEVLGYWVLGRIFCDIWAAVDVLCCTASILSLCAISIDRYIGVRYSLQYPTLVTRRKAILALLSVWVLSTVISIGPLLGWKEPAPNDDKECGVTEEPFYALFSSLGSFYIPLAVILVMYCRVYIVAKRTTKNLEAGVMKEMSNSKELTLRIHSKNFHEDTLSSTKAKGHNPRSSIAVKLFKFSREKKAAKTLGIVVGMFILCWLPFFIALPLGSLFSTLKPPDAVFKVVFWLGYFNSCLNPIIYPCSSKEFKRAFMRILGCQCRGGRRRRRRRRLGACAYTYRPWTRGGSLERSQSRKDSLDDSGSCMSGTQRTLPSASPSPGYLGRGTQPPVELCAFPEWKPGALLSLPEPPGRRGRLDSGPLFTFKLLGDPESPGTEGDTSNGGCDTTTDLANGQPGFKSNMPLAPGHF
T1 sequence (P23944 whole entry): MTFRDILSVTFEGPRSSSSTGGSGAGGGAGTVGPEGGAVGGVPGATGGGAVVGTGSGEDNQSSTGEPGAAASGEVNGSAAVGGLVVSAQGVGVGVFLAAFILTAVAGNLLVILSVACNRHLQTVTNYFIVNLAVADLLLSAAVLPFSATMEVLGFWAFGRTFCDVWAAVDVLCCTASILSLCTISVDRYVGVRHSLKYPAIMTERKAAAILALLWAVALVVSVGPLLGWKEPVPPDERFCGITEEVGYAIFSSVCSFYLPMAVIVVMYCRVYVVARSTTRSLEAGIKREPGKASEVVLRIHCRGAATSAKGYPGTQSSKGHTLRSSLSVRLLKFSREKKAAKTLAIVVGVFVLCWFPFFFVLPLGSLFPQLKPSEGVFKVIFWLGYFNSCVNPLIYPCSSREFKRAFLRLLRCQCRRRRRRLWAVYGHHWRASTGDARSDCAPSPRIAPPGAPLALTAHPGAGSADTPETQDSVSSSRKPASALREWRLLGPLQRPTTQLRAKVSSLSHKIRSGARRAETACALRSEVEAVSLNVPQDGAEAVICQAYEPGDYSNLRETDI
T1 sequence (P43140 whole entry): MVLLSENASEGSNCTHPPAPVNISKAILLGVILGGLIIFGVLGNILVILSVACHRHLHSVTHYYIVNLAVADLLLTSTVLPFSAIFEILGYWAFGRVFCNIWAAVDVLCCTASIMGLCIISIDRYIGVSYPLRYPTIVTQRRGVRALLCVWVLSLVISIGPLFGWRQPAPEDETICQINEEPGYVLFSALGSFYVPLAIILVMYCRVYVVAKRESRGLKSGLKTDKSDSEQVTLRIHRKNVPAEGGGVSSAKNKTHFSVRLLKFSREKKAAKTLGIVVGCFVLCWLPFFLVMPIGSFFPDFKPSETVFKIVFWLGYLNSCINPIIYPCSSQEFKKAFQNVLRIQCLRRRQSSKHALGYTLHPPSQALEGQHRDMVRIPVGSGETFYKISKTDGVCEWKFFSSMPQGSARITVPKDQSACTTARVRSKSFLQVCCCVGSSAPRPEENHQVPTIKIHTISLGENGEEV
The experiment in a line: Displacement of [3H]prazosin from alpha1-adrenergic receptor in rat cerebral cortex membranes. Format: cell membranes, Membrane.

Experiment [4] can be described thus: Antiplatelet activity in human washed platelets assessed as reduction in thrombin-induced platelet aggregation preincubated for 5 mins followed by thrombin induction measured after 5 mins by dual channel aggregometric analysis. Format: functional, cell-based.
Experiment [5] can be described thus: Cytotoxicity against human IMR32 cells assessed as reduction in cell viability after 72 hrs by MTT assay. In kind it is functional, cell-based. The note with it: IMR-32, 72 h. In general terms: Tetrazolium dyes change colour on reduction, which living cells bring about.
Experiment [6] is described as follows: Cytotoxicity against human QGY7703 cells assessed as cell growth inhibition after 72 hrs in presence of 5% CO2 by MTS assay. In kind it is functional. The note with it: QGY-7703, 72 h.
The nature of experiment [7]: Cytotoxicity against human Bel7402 cells assessed as cell growth inhibition after 72 hrs in presence of 5% CO2 by MTS assay. In kind it is functional. Conditions: Bel-7402, 72 h.
Experiment [8] is described as follows: Cytotoxicity against human SMMC7721 cells assessed as cell growth inhibition after 72 hrs in presence of 5% CO2 by MTS assay. Format: functional. Conditions: SMMC-7721, 72 h.
Experiment [9] is filed under the species Rattus norvegicus. The experiment is described as follows: Antiinflammatory activity in rat pyresis model. Format: functional.
Experiment [10] relates to Rattus norvegicus. The experiment in a line: Antiinflammatory activity in rat paw edema model. Format: functional.
The nature of experiment [11]: Agonist activity at PGI2 in human platelet-rich plasma assessed as inhibition of ADP-induced platelet aggregation.
Experiment [12] can be described thus: Antiplatelet activity in human platelets assessed as reduction in thrombin-induced platelet aggregation by turbidimetric method. In kind it is functional, cell-based.

For the compound `COc1ccc(-c2cc(=O)n(CC/C=C/c3ccccc3)nc2-c2ccc(OC)cc2)cc1`, the IC50 in [1] stood at 100 nM.

Take `O=C(c1ccco1)N1CCN(c2cnn(CCCCCCCN3CCN(c4ccccc4Oc4ccccc4)CC3)c(=O)c2Cl)CC1`: the Ratio in experiment [2] turned out to be 5. For the same compound, in experiment [3], the inhibition constant (Ki) is listed as 0.052 nM. As for `COC(=O)C(=Cc1cc(=O)[nH]nc1-c1ccccc1)C(=O)OC`, the half-maximal inhibitory concentration (IC50) in experiment [4] worked out at 45000 nM. On to `CC(C)(C)c1ccc(CSc2c(-c3ccccc3)nn(C(C)(C)C)c(=O)c2F)cc1`, for which, in [4], the concentration for half-maximal inhibition (IC50) was determined as 15000 nM. Take `Cc1n[nH]c(=O)c2c1c1cc(F)ccc1n2Cc1cn(C2CCCCC2)nn1`: in [5], the half-maximal inhibitory concentration (IC50) came out at 40 nM. For `COC(=O)/C(=C/c1cc(O)nnc1-c1ccccc1)C(C)=O`, the IC50 in experiment [4] is 25000 nM. As to `O=c1ccc(-c2ccc(N3CCOCC3)c(C(F)(F)F)c2)n[nH]1`, the GI50 in experiment [6] was 30.2 nM; in experiment [7], 469 nM; in experiment [8] it was 28.7 nM.

Turning to `CCOC(=O)C(=Cc1cc(=O)[nH]nc1-c1ccccc1)C(=O)OCC`, in experiment [4], the 50% inhibitory concentration (IC50) is 20000 nM. Turning to `C[C@H]1C[C@@H]1Cn1ncc(-c2ccc(S(C)(=O)=O)cc2)c(-c2ccc(F)cc2)c1=O`, the ED50 in the experiment filed under Rattus norvegicus [9] stood at 1.1 mg/kg. Turning to `CC(C)Oc1c(-c2ccc(S(C)(=O)=O)cc2)cnn(Cc2ccccc2)c1=O`, in the experiment on Rattus norvegicus [10], the ED50 is 0.3 mg/kg.

As for `O=C(O)COc1cccc2c1CC[C@H](Cn1nc(C(c3ccccc3)c3ccccc3)ccc1=O)C2`, the concentration for half-maximal inhibition (IC50) in [11] turned out to be 81 nM. Turning to `O=C(/C=C/c1cc(=O)[nH]nc1-c1ccccc1)c1ccccc1`, the IC50 in experiment [4] is 25000 nM. Turning to `O=C(/C=C/c1cc(=O)[nH]nc1-c1ccccc1)c1ccc(Cl)cc1Cl`, the half-inhibitory concentration (IC50) in experiment [12] was found to be 3440 nM.

For the origin of these results see ChEMBL document CHEMBL3871265, “The therapeutic journey of pyridazinone” (Eur J Med Chem, 2016).
